Values of other authors, collected in patent publication US8003118B2 (priority 2005, dated 2011).

solubility in water: practically insoluble
SMILES: CO[C@H]1/C=C/O[C@@]2(C)Oc3c(C)c(O)c4c(O)c(c5c(nc6cc(C)ccn65)c4c3C2=O)NC(=O)/C(C)=C\C=C\[C@H](C)[C@H](O)[C@@H](C)[C@@H](O)[C@@H](C)[C@H](OC(C)=O)[C@@H]1C [rifaximin, (2S,16Z,18E,20S,21S,22R,23R,24R,25S,26S,27S,28E)-5,6,21,23,25-pentahydroxy-27-methoxy-2,4,11,16,20,22,24,26-octamethyl-2,7-(epoxypentadeca-[1,11,13]trienimino)benzofuro[4,5-e]pyrido[1,2-α]-benzimidazole-1,15(2H)-dione,25-acetate]
